Source: patent US4704399A, “1,3-dioxan-4-ylalkenoic acids” (Imperial Chemical Industries PLC, priority 1983, dated 1987)

Experiments:
[1] = tested on: bronchoconstriction induced by TXA2 mimetic agent U46619; assay: bronchoconstriction test, Konzett-Rossler guinea-pig model, test (c); assay type: in vivo; settings: some 3 hours following an oral dose of 5mg/kg, U46619 i.v. 1-1.5 μg/kg
Description: (c) a bronchoconstriction test involving measuring the inhibition by a test compound of the bronchoconstriction induced in the Konzett-Rossler guinea-pig model (as modified by Collier and James, Brit. J. Pharmacol., 1967, 30, 283-307) by intravenous administration of the TXA2 mimetic agent, U46619 at 1-1.5 μg/kg.

[2] = tested on: rabbit aortal strip, agonist TXA2 mimetic agent U46619; assay: rabbit aortal strip model, test (a); parameters: species or system isolated tissue
Source text: (a) The rabbit aortal strip model devised by Piper and Vane (Nature, 1969, 223, 29-35) using as agonist the TXA2 mimetic agent known as U46619 (R. L. Jones et alia in "Chemistry, Biochemistry and Pharmacological Activity of Prostanoids", eds. S. M. Roberts and F. Scheinmann, at p.211; Pergamon Press, 1979);

[3] = tested on: hypertensive effect of TXA2 mimetic agent U46619; assay: U46619-induced hypertensive effect in anaesthetised rats, test (d); assay type: in vivo, rats (Alderley Park strain)
Description: (d) Male rats (Alderley Park strain) are anaesthetised with sodium pentobarbital and blood pressure is monitored at the carotid artery. The TXA2 mimetic agent U46619 is administered intravenously via the jugular vein and an ED50 (dose necessary to produce 50% of the maximum hypertensive effect) is established (n=3). The ED50 for U46619 is approximately 5 μg/kg. A test compound is then administered either intravenously via the jugular vein or orally via a cannula directly into the stomach and the animal challenged with an ED50 dose of U46619, five minutes after dosing with test compound and then successively every ten minutes until the hypertensive effect of U46619 is no longer blocked.

Structure (SMILES)	reduction of bronchoconstriction [1]	pA2 [2]	inhibition of the hypertensive effect ([3]; test (d), 80-90 minutes following an oral dose of 50 mg./kg., challenge with ED50 dose of U46619)	ED50 ([3]; Rattus norvegicus, iv, intravenously via the jugular vein, anaesthetised male rats, n=3, read-out: ED50 (dose necessary to produce 50% of the maximum hypertensive effect)) [µg/kg]
CCC[C@H]1OC[C@H](c2ccccc2C)[C@@H](CCCCCCC(=O)O)O1 (relative stereo) [Example 12, 7-([2,4-cis,4,5-trans]-2-n-propyl-5-o-tolyl-1,3-dioxan-4-yl)heptanoic acid]	significant reduction of bronchoconstriction	6.7	complete inhibition of the hypertensive effect	–
CCCCC[C@H](O)/C=C/[C@@H]1[C@@H](C/C=C\CCCC(=O)O)[C@H]2CO[C@@H]1C2 [Example U46619, reference compound]	–	–	–	~5
